Laboratory results taken from US20240390383A1, “DIOXAZINES AND THEIR USE IN TREATMENT OF GBA-RELATED DISEASES” (ZEVRA DENMARK A/S, priority 2021, published 2024).
Several values for one entry are separate records, joined by “and”; a condition that tells them apart may be missing. Equal entries are not always repeated.

Biological target: T1, GCase (GBA) in human fibroblast cell line GM10915 harboring the L444P GBA mutation (Homo sapiens, UniProt P04062, L483P)
T1 construct: Human fibroblast cell line GM10915 harboring the L444P GBA mutation; host or cells: GM10915 human fibroblasts
T1 sequence (P04062 40-536 L483P): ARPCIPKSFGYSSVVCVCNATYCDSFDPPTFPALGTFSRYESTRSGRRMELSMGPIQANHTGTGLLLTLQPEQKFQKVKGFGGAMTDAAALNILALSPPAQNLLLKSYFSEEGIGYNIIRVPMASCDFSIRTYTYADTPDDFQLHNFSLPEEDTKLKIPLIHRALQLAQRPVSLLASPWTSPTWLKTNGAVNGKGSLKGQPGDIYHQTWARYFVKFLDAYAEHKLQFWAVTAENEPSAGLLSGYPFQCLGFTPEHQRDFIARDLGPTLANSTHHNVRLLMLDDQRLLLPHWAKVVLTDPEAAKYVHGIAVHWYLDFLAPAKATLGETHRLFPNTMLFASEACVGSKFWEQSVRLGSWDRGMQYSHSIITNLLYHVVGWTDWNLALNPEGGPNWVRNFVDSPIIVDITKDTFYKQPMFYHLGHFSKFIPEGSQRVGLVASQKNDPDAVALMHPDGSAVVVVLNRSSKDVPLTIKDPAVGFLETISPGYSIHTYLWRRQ
Test: GCase activity assay (4-MUG substrate, normalised to crystal violet staining) in L444P GBA fibroblasts
Type: cell-based
Details: 5 days exposure; for GBA EC1.5: concentration giving 150% GCase activity (1.5-fold induction), 8-point dose range; for Emax / GBA Emax: maximum percent GCase activity relative to untreated cells in the dose range tested
Method: Human fibroblast cell line GM10915 harboring the L444P GBA mutation was obtained from Coriell Biorepositories.
All chemicals (Glacial acetic acid, Glycine, 4-Methylumbelliferyl b-D-glucopyranoside (4-MUG), Sodium acetate trihydrate, Sodium hydroxide, Crystal violet, SDS, Ammonium hydroxide) were obtained from Sigma-Aldrich (Denmark) Compounds tested for GCase activity were dissolved in H2O or DMSO.
The GM10915 cell line was cultured under standard cell culture conditions (37° C. and 5% CO2) in complete DMEM medium supplemented with nonessential amino acids (NEAA), 1% Pen-Strep and 12% FCS. Cells were seeded at a density of 10^4 cells/well in 100 μL complete medium in one black 96-well plate for glucosylceramidase (GCase) activity measurement and in one clear 96-well plate for crystal violet staining to correct for cell density. Crystal violet staining is performed to obtain quantitative information about the relative density of cells adhering to multi-wells plates.
The assay was adapted from Sawkar et al (2002) and briefly described in the following. The day after seeding of cells, the medium was replaced with fresh medium containing the compounds to be tested. Compounds were tested in duplicate and in an 8-point diluted dose range to obtain a dose response. Cells were exposed with compounds for five days. Fresh compound was added every 2-3 days. PBS was included to define the basal level of GCase activity.
Cells were washed three times with 200 μL PBS per well and 50 μL of 2.5 mM 4-MUG buffer (4-MUG dissolved in 0.2 M acetate buffer pH 4.0) was added and the cells were incubated at 37° C., 5% CO2 for 23 hours. The reaction was stopped by adding 150 μL 0.2 M glycine buffer (pH 10.8). Fluorescence was measured with a Varioskan® Flash reader (Thermo Scientific) at an excitation/emission setting of 365/445 nm.
Cells were treated with compounds in a parallel setup identical to the setup to test for GCase activity. At the end of compound treatment, cells were washed once with 200 μL PBS per well and 50 μL 0.1% w/v crystal violet (in H2O) was added. Following 10 min. of incubation, the crystal violet solution was removed, and the cells were washed three times with 200 μL PBS and 100 μL 1% SDS was added to solubilize the stain. The plate was agitated on an orbital shaker for 10-30 min. Absorbance (A) is measured at […] using a Varioskan® Flash reader (Thermo Scientific).
The fluorescence signal (F) derived from the GCase measurement is normalized to the absorbance signal (A) derived from the crystal violet staining. The percent GCase activity resulting from compound treatment is calculated relative to the basal activity obtained from untreated cells.
Maximal effect of compounds (Emax) is determined from the dose response effects as the maximum “Percent GCase activity” achieved in the dose range tested.

SMILES | GBA EC1.5 | Emax [%] | GBA Emax
CC1(C2=NOCC(CN3CCCCC3)O2)CCNCC1 (racemic) [compound 568, rac-3-(4-methylpiperidin-4-yl)-5-(piperidin-1-ylmethyl)-5,6-dihydro-1,4,2-dioxazine] | 6 µM | 281 | –
CN1CC2(C1)CN(CC1CON=C(C3(C)CCNCC3)O1)C2 (stereo not shown) [compound 580] | 50 µM | 105 | –
C1CCN(CC2CON=C([C@]34CCC[C@H]3NCC4)O2)CC1 (relative stereo) [compound 469, rac-3-rel-trans-((3aS,6aR)-hexahydrocyclopenta[b]pyrrol-3a(1H)-yl)-5-(piperidin-1-ylmethyl)-5,6-dihydro-1,4,2-dioxazine] | 5 µM | – | 204%
Cn1ncc(CC2(C3=NOCC(CN4CCCCC4)O3)CCNCC2)n1 (stereo not shown) [compound 507] | 35 µM | 149 | –
c1cncc(CC2(C3=NOCC(CN4CCCCC4)O3)CCOCC2)c1 (stereo not shown) [compound 552] | 50 µM | 115 | –
Fc1cncc(CC2(C3=NOCC(CN4CCCCC4)O3)CCNCC2)c1 (racemic) [compound 528, rac-3-(4-((5-fluoropyridin-3-yl)methyl)piperidin-4-yl)-5-(piperidin-1-ylmethyl)-5,6-dihydro-1,4,2-dioxazine] | 6 µM | 181 | –
C1CCN(CC2CON=C([C@@]34CN[C@@H](CO3)C4)O2)CC1 (mixture of isomers) [compound 490, rac-(1R,4R)-1-(5-(piperidin-1-ylmethyl)-5,6-dihydro-1,4,2-dioxazin-3-yl)-2-oxa-5-azabicyclo[2.2.1]heptane] | 11 µM | 215 | –
CC1(C2=NOCC(CN3CCCCC3)O2)CCCNC1 (racemic) [compound 476, rac-3-(3-methylpiperidin-3-yl)-5-(piperidin-1-ylmethyl)-5,6-dihydro-1,4,2-dioxazine] | 6 µM | 253 | –
N[C@H]1CN[C@H](C2=NOCC(CN3CCCCC3)O2)C1 (stereo partly shown) [compound 597] | 50 µM | 106 | –
Fc1cccc(C2(C3=NOCC(CN4CCCCC4)O3)CCCNC2)n1 (stereo not shown) [compound 598] | 1 µM | 179 | –
C1CCN(CC2CON=C([C@]34CCC[C@H]3NCC4)O2)CC1 (relative stereo) [compound 584, rac-rel-trans-3-((3aS,6aR)-hexahydrocyclopenta[b]pyrrol-3a(1H)-yl)-5-(piperidin-1-ylmethyl)-5,6-dihydro-1,4,2-dioxazine] | 10 µM and 5 µM | – | 253% and 204%
N[C@@H]1CN[C@H](C2=NOCC(CN3CCCCC3)O2)C1 (stereo partly shown) [compound 596] | 50 µM | 105 | –
COC1(C2=NOCC(CN3CCCCC3)O2)CCNC1 (racemic) [compound 606, rac-3-(3-methoxypyrrolidin-3-yl)-5-(piperidin-1-ylmethyl)-5,6-dihydro-1,4,2-dioxazine] | 20 µM | 292 | –
CCCCCO[C@H]1CC[C@H](NC(=O)c2cnn3c(C)cc(C)nc23)CC1 [LTI-291, reference compound] | 112 µM | – | –
COc1ncc(CC2(C3=NOCC(CN4CCCCC4)O3)CCNCC2)cc1Cl (stereo not shown) [compound 545] | 1 µM | 140 | –
CN1CCC2CN(CC3CON=C(C4(C)CCNCC4)O3)CC2C1 (stereo not shown) [compound 602] | 50 µM | 121 | –

The next lines start with the values.

GBA EC1.5 | Emax [%] | GBA Emax | SMILES
6 µM | 180 | – | CC(C)C1ON=C(C2CCNCC2)OC1CN1CCCCC1 (racemic) [compound 706, rac-6-isopropyl-5-(piperidin-1-ylmethyl)-3-(piperidin-4-yl)-5,6-dihydro-1,4,2-dioxazine]
15 µM | 212 | – | C1CCN(CC2CON=C(C3CC4CNCC3O4)O2)CC1 (stereo not shown) [compound 862]
4 µM | 203 | – | COc1ccc(C2(C3=NOCC(CN4CCCCC4)O3)CCNCC2)nc1 (stereo not shown) [compound 852]
50 µM | 115 | – | CN(C)C(=O)N1CCCC1C1=NOCC(CN2CCCCC2)O1 (stereo not shown) [compound 694]
16 µM | 283 | – | CC(N)C(=O)N1CCC(C2=NOCC(CN3CCCCC3)O2)CC1 (racemic) [compound 748, rac-2-amino-1-(4-(5-(piperidin-1-ylmethyl)-5,6-dihydro-1,4,2-dioxazin-3-yl)piperidin-1-yl)propan-1-one]
50 µM | 146 | – | CC(=O)NC1CCNCC1C1=NOCC(CN2CCCCC2)O1 (stereo not shown) [compound 671]
6 µM | 253 | – | C1CCN(CC2CON=C(CC3CNCCO3)O2)CC1 (stereo not shown) [compound 863]
38 µM | 136 | – | CN(C)[C@H]1CNC[C@H]1C1=NOCC(CN2CCCCC2)O1 (mixture of isomers) [compound 766, rac-rel-cis-(3R,4R)—N,N-dimethyl-4-(5-(piperidin-1-ylmethyl)-5,6-dihydro-1,4,2-dioxazin-3-yl)pyrrolidin-3-amine]
50 µM | 111 | – | O=C1NCCC1C1=NOCC(CN2CCCCC2)O1 (stereo not shown) [compound 637]
50 µM | 113 | – | O=C1CCC(C2=NOCC(CN3CCCCC3)O2)CN1 (stereo not shown) [compound 617]
5 µM | 165 | – | c1nc(C2CCCNC2)sc1C1=NOCC(CN2CCCCC2)O1 (stereo not shown) [compound 875]
9 µM | 265 | – | CN1CCC(C2=NOCC(CN3CCCCC3)O2)CC1 (racemic) [compound 770, rac-3-(1-methylpiperidin-4-yl)-5-(piperidin-1-ylmethyl)-5,6-dihydro-1,4,2-dioxazine]
50 µM | 123 | – | CC(=O)N1CCC(C2=NOCC(CN3CCCCC3)O2)C1 (stereo not shown) [compound 674]
7 µM | 201 | – | C[C@@]1(C2=NOC[C@@H](CN3CCCCC3)O2)CCCNC1 [compound 883]
50 µM | 107 | – | CC(=O)N1CCCC1C1=NOCC(CN2CCCCC2)O1 (stereo not shown) [compound 692]
50 µM | 97 | – | CN1CCN(CC2CON=C(C3(Cc4cccnc4)CCNCC3)O2)CC1 (stereo not shown) [compound 686]
28 µM | 234 | – | CN(C)C(=O)CN1CCCC(C2=NOCC(CN3CCCCC3)O2)C1 (racemic) [compound 710, rac-N,N-dimethyl-2-(3-(5-(piperidin-1-ylmethyl)-5,6-dihydro-1,4,2-dioxazin-3-yl)piperidin-1-yl)acetamide]
15 µM | 270 | – | COC1CCN(C)CC1C1=NOCC(CN2CCCCC2)O1 (racemic) [compound 700, rac-3-(4-methoxy-1-methylpiperidin-3-yl)-5-(piperidin-1-ylmethyl)-5,6-dihydro-1,4,2-dioxazine]
8 µM | 269 | – | COCCC1(C2=NOCC(CN3CCCCC3)O2)CCNCC1 (racemic) [compound 726, rac-3-(4-(2-methoxyethyl)piperidin-4-yl)-5-(piperidin-1-ylmethyl)-5,6-dihydro-1,4,2-dioxazine]
4 µM | 181 | – | C1CCN(CCC2=NOCC(CN3CCCCC3)O2)CC1 (racemic) [compound 816, rac-3-(2-(piperidin-1-yl)ethyl)-5-(piperidin-1-ylmethyl)-5,6-dihydro-1,4,2-dioxazine]
50 µM | 113 | – | COc1ccc(CC2(C3=NOCC(CN4CCCCC4)O3)CCNCC2)c(C)n1 (stereo not shown) [compound 703]
